“Also recorded” adds a separate entry of the source.
Assays:
[1] = Chemical stability in isotonic saline and phosphate buffer (Example A); assay type: physicochemical; settings: 100 μM; phosphate buffer pH 7.4; 1 hour; room temperature
Method: Methods: Aliquots of a 10 μg/mL solution of 30.1 in isotonic saline and in 100 mM potassium phosphate buffers at pH 3, 7, and 9 were sampled after 1, 2, 5, and 7 days of incubation at room temperature and analyzed by HPLC. A Beckman Ultrasphere C8 column (4.6×150 mm) was employed and eluted with a gradient from 0.1% v/v trifluoroacetic acid to 80% methanol at a flow rate of 1.0 mL/min. Detection was at 254 nm. Using these conditions, the four isomers of 30.1 were readily separated and quantified. 1.3 was incubated at 100 μM in phosphate buffer at pH 7.4 and analyzed by HPLC as described in Example I following 1 hour of incubation at room temperature.
Thus, prodrugs of the invention are stable under a broad pH range.

[2] = Stability in plasma (Example C); settings: 37° C.; 5-8 hours; HPLC
Method: Methods: Compounds were incubated in plasma at 37° C., and aliqouts removed at appropriate time points over the course of 5-8 hours. The aliquots were extracted with 1.5 volumes of methanol and clarified by centrifugation. Supernatants were then evaporated to dryness and the residues reconstituted with 100 μL of isoionic saline and then analyzed by reverse phase HPLC.

[3] = Delivery of parent compound to liver after intraperitoneal 1.3 (Example U); assay type: in vivo, rat; settings: 1.3 50 mg/kg i.p.
Method: Methods: 1.3 was dissolved in DMSO and administered intraperitoneally to fasted rats at a dose of 50 mg/kg. At various time points following drug administration, animals were anesthetized with halothane. The peritoneal cavity was then opened and a blood sample was obtained from the abdominal vena cava and the liver freeze-clamped and excised. Blood and liver samples were processed as described in Example P and analyzed for 6-Amino-9-neopentyl-8-(2-phosphonofuranyl)purine content as described in Example I.
Results: 6-Amino-9-neopentyl-8-(2-phosphonofuranyl)purine was detected both in plasma and liver following 1.3 administration. Peak levels measured at the earliest time point of 1 hour were 5.8 μM in plasma and 5 nmoles/g tissue in liver. 6-Amino-9-neopentyl-8-(2-phosphonofuranyl)purine persisted in plasma and liver for 4 hours (the last time point measured).

[4] = system: glucose production (gluconeogenesis) in isolated rat hepatocytes; test: Inhibition of glucose production in rat hepatocytes (Example J); assay type: cell-based; settings: lactate 10 mM / pyruvate 1 mM, 1 hour
Method: Select prodrugs of FBPase inhibitors were tested for inhibition of glucose production in isolated rat hepatocytes.
After a 10 minute equilibration period, lactate and pyruvate were added to 10 mM and 1 mM concentrations, respectively. Addition of gluconeogenic substrates was immediately followed by that of appropriate concentrations of test compound. After 1 hour, an aliquot (0.25 ml) was removed, transferred to an Eppendorf tube and centrifuged. The supernatant (50 μl) was then assayed for glucose content using a Glucose Oxidase kit (Sigma Chemical Co.) as per the manufacturer's instructions.
Results: The following table depicts the inhibitory effect on gluconeogenesis for several prodrugs prepared in the Examples.

[5] = Oral bioavailability by urinary excretion method (Example M); assay type: in vivo; settings: oral gavage 20 or 40 mg/kg parent equivalents; 24 h urine vs i.v. parent ~10 mg/kg; rat
Method: The oral bioavailability of prodrugs of a variety of phosphonic acid FBPase inhibitors was estimated by a urinary excretion method in rat.
Prodrugs of FBPase inhibitors were dissolved in 10% ethanol/90% polyethylene glycol (mw 400) and administered by oral gavage at doses of 20 or 40 mg/kg parent compound equivalents to 6-hour fasted, Sprague Dawley rats (220-240 g). The rats were subsequently placed in metabolic cages and urine was collected for 24 hours. The quantity of parent compound excreted into urine was determined by HPLC analysis. An ODS column eluted with a gradient from potassium phosphate buffer, pH 5.5 to acetonitrile was employed for these measurements. Detection was at 310-325 nm. […] Parent compounds were typically dissolved in dimethyl sulfoxide, and administered via the tail vein in animals that were briefly anesthetized with halothane.
Results for the FBPase inhibitor prodrugs were as follows

isolated rat hepatocytes [6] = test: Activation in isolated rat hepatocytes (Example I); settings: 100 μM prodrug; fed rat hepatocytes
Method: Methods: Hepatocytes were prepared from fed Sprague-Dawley rats (250-300 g) according to the procedure of Berry and Friend (Berry, M. N., Friend, D. S. J. Cell Biol. 43, 506-520 (1969)) as modified by Groen (Groen, A. K. et al. Eur J. Biochem 122, 87-93 (1982)). Hepatocytes (75 mg wet weight/ml) were incubated in 1 ml Krebs-bicarbonate buffer containing 10 mM glucose, and 1 mg/ml BSA. […] Prodrugs were dissolved in DMSO to yield 10 mM stock solutions, and then diluted into the cell suspension to yield a final concentration of 100 μM. At appropriate time points over the course of one hour, aliquots of the cell suspension were removed and spun through a silicon/mineral oil layer into 10% perchloric acid. The cell extracts in the acid layers were neutralized, and the intracellular prodrug metabolite content analyzed by reverse phase HPLC. An ODS column was used for analysis. It was eluted with a gradient from 10 mM sodium phosphate, pH 5.5 to 75% acetonitrile. Detection was at 310 nm. Peaks on the chromatograms were identified by comparison to the retention times and spectra of standards of prodrug and parent compound.

[7] = Hepatic PMEA-diphosphate and plasma PMEA after intravenous administration (Example P); assay type: in vivo, rat; settings: 10 mg/kg PMEA equivalents i.v.; fasted rats
Method: Methods. […] At appropriate time points, blood and liver samples were obtained and processed as described in Example O. PMEA-diphosphate in liver and PMEA in plasma were analyzed by HPLC as described for araATP and ara-hypoxanthine, respectively, in Example O.

[8] = Renal excretion of PMEA after intravenous administration (Example Q); settings: i.v.; for Renal excretion of PMEA, of the administered dose: rats, 24 hour urine
Method: Rats were subsequently caged in metabolic cages and urine collected over a 24 hour period. Urine samples were extracted with 70% methanol/2% acetic acid, vortexed and clarified by centrifugation. Supernatants were analyzed for PMEA content by reverse phase HPLC. A Beckman Ultrasphere ODS (4.6×150 mm) column was used with a gradient from 20 mM potassium phosphate pH 6.2 to 50% acetonitrile.

[9] = system: human liver microsomes, p450 isozymes (CYP3A4, CYP1A2, CYP2C9); test: Identification of the p450 isozyme involved in the activation, with isozyme inhibitors (Example F); settings: 0-100 μM p450 isozyme inhibitor, 250 μM 30.1
[10] = in vivo; cited from earlier work
isolated rat hepatocytes [11] = test: Generation of PMEApp in isolated rat hepatocytes (Example V); assay type: cell-based; settings: Dose 250 μM; 4 h; triplicate
Method: Methods: Hepatocytes were prepared from fed rats and incubated as described in Example I. Test compounds were prepared in DMSO and-diluted to 250 μM in the cell suspensions. Reactions were performed in triplicate. After 4 hours of incubation, aliquots of the suspension were removed and processed as described in Example I. Quantitation of PMEApp was performed by anion exchange HPLC also as described in Example I.

CC(C)(C)Cn1c(-c2ccc(P3(=O)OC4CC(O)CC(C4)O3)o2)nc2c(N)ncnc21 (single isomer, unassigned) [Compound 1.3, 6-Amino-8-(5′-hydroxyl-1′,3′ cyclohexyl)phosphonofuranyl-9-neopentyl purine]
stability in phosphate buffer [1]: fully stable
metabolism / degradation in fresh rat plasma [2]: no evidence of metabolism
peak level of parent 6-Amino-9-neopentyl-8-(2-phosphonofuranyl)purine in liver ([3]; fasted rats, 1 hour): 5 nmoles/g tissue
peak level of parent 6-Amino-9-neopentyl-8-(2-phosphonofuranyl)purine in plasma ([3]; fasted rats, 1 hour): 5.8 µM
persistence of parent compound in plasma and liver ([3]; last time point measured): 4 h

Nc1ncnc2c1nc(-c1ccc(P3(=O)OC4CC(O)CC(C4)O3)o1)n2CCc1ccccc1 (centres unmarked) [Compound 1.1, 6-Amino-8-(5′-hydroxyl-1′,3′-cyclohexyl)phosphonofuranyl-9-phenethyl purine]
metabolism / degradation in fresh rat plasma [2]: not degraded; also recorded: no evidence of metabolism

CC(C)(C)Cn1c(-c2ccc(P3(=O)OC4CC(O)CC(C4)O3)o2)nc2c(N)ncnc21 (centres unmarked) [Compound 1.2, 6-Amino-8-(5′-hydroxyl-1′,3′-cyclohexyl)phosphonofuranyl-9-neopentyl purine]
metabolism / degradation in fresh rat plasma [2]: not degraded

Cc1c(Cl)cc2c(nc(-c3ccc(P4(=O)OC5CC(O)CC(C5)O4)o3)n2CC2CC2)c1C (centres unmarked) [Compound 1.4, 6-Chloro-4,5-dimethyl-1-cyclopropylmethyl-2-[1′-hydroxy-3′,5′-cyclohexylphosphono-5-furanyl]benzimidazole]
% inhibition @ 100 μM [4]: 36%

CC(=O)N[C@@H]1COP(=O)(c2ccc(-c3nc4ccc(Cl)cc4n3CC(C)C)o2)O[C@H]1c1ccc([N+](=O)[O-])cc1 (stereo partly drawn) [Compound 2.4, 6-Chloro-1-isobutyl-2-{5-[1S-(4-nitrophenyl)-2R-acetylamino-propan-1,3-yl]phosphono-2-furanyl}benzimidazole]
% OBAV Prodrug [5]: 8.7%
% inhibition @ 100 μM [4]: 40%

CC(C)Cn1c(-c2ccc(P3(=O)OCCC(c4ccccn4)O3)o2)nc2ccc(Cl)cc21 (centres unmarked) [Compound 4.2, 6-Chloro-1-isobutyl-2-{5-[1′-(2-pyridyl)-propan-1′,3′-yl]phosphono-2-furanyl}benzimidazole]
% OBAV Prodrug [5]: 8.5%
% inhibition @ 100 μM [4]: 68%

CC(C)Cn1c(-c2ccc(P3(=O)OCCC(c4ccncc4)O3)o2)nc2ccc(Cl)cc21 (centres unmarked) [Compound 4.3, 6-Chloro-1-isobutyl-2-{5-[1′-(4-pyridyl)-propan-1′,3′-yl]phosphono-2-furanyl}benzimidazole]
% OBAV Prodrug [5]: 11.6%
% inhibition @ 100 μM [4]: 55%

CC(C)Cn1c(-c2ccc(P3(=O)OCCC(c4ccc(F)cc4)O3)o2)nc2ccc(Cl)cc21 (centres unmarked) [Compound 5.2, 6-Chloro-1-isobutyl-2-{5-[1′-(4-fluorophenyl)-propan-1′,3′-yl]phosphono-2-furanyl}benzimidazole]
% OBAV Prodrug [5]: 2.4%

COc1ccc(C2CCOP(=O)(c3ccc(-c4nc5ccc(Cl)cc5n4CC(C)C)o3)O2)cc1Br (centres unmarked) [Compound 6.1, 6-Chloro-1-isobutyl-2-{5-[1′-(3-bromo-4-methoxyphenyl)-propan-1′,3′-yl]phosphono-2-furanyl}benzimidazole]
% inhibition @ 100 μM [4]: 11%

CC(=O)OCC1COP(=O)(c2ccc(-c3nc4ccc(Cl)cc4n3CC(C)C)o2)OC1 (centres unmarked) [Compound 7.2, 6-Chloro-1-isobutyl-2-{5-[2′-(acetoxymethyl)-propan-1′,3′-yl]phosphono-2-furanyl}benzimidazole]
% OBAV Prodrug [5]: 12.5%
peak intrahepatocyte levels of parent compound (isolated rat hepatocytes [6]): ~500 nmoles/g cells
IC50 [4]: 90 µM

COC(=O)OCC1COP(=O)(c2ccc(-c3nc4ccc(Cl)cc4n3CC(C)C)o2)OC1 (centres unmarked) [Compound 7.3, 6-Chloro-1-isobutyl-2-{5-[2′-(methoxycarbonytoxymethyl)-propan-1′,3′-yl]phosphono-2-furanyl}benzimidazole]
% OBAV Prodrug [5]: 14.1%
% inhibition @ 100 μM [4]: 61%

CCc1cc(F)c(N)c2nc(-c3ccc(P4(=O)OCC(COC(C)=O)CO4)o3)n(CC(C)C)c12 (centres unmarked) [Compound 7.4, 4-Amino-5-fluoro-7-ethyl-1-isobutyl-2-{5-[2′-(acetoxymethyl)-propan-1′,3′-yl]phosphono-2-furanyl}benzimidazole]
IC50 [4]: 25 µM

Nc1ncnc2c1ncn2CCOCP1(=O)OCCC(c2ccncc2)O1 (centres unmarked) [Compound 28.4, 9-[2-(1-(4-Pyridyl)-1,3-propylphosphonomethoxy)ethyl]adenine]
PMEA-diphosphate levels in liver [7]: readily detectable levels; also recorded: high PMEA disphosphate levels
PMEA in the blood or urine [8]: no detectable PMEA

CC(=O)N1CCN(c2ccc(OCC3COC(Cn4ccnc4)(c4ccc(Cl)cc4Cl)O3)cc2)CC1 (centres unmarked) [Ketoconazole]
inhibition of the formation of ara-AMP from 30.1 [9]: dose-dependent

Nc1ncnc2c1ncn2[C@@H]1O[C@H](CO)[C@@H](O)[C@@H]1O [araA, 9-b-D-arabinofuranosyladenine]
oral bioavailability [10]: low oral bioavailability

CC(C)(C)C(=O)OCOP(=O)(COCCn1cnc2c(N)ncnc21)OCOC(=O)C(C)(C)C [bisPOM-PMEA, reference compound]
PMEA-diphosphate levels in liver [7]: readily detectable levels
PMEApp (isolated rat hepatocytes [11]): 200 ± 33 nmol/g
Renal excretion of PMEA, of the administered dose [8]: 54%
Renal excretion of PMEA, of the administered dose ([8]; listed as bis POM prodrug of PMEA): high levels of PMEA in the urine

Cc1nc2c([nH]1)c(=O)n(C)c(=O)n2Cc1ccco1 [furafylline]
inhibition of the formation of ara-AMP from 30.1 [9]: no significant inhibition

Nc1ccc(S(=O)(=O)Nc2ccnn2-c2ccccc2)cc1 [sulfaphenazole]
inhibition of the formation of ara-AMP from 30.1 [9]: no significant inhibition

Source: patent US7351399B2, “Prodrugs for phosphorus-containing compounds” (Metabasis Therapeutics, Inc., priority 1998, dated 2008)
